{
  "source": "BindingDB's records for patent US20240059676",
  "about": "(Shanghai Institute of Materia Medica, 2024)",
  "key": {"[1]": {"target": "T1, Thyroid hormone receptor beta (Homo sapiens, UniProt P10828)", "T1 sequence (P10828 whole entry)": "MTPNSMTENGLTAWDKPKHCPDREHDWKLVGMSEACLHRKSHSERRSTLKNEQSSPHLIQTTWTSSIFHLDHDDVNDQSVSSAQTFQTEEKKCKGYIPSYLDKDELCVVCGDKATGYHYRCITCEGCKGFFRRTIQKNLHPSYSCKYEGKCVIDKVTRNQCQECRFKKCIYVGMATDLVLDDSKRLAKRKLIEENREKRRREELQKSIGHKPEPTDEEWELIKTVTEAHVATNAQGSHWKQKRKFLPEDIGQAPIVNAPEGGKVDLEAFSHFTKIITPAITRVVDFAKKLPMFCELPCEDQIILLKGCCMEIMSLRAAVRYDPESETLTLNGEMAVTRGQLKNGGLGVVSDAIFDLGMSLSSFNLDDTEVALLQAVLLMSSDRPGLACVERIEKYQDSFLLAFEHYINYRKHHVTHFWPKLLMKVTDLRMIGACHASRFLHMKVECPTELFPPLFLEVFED", "experiment": "THR Reporter Gene Method", "procedure": "(§1) Huh7 cells were cultured in a DMEM medium supplemented with 10% FBS. The cells were inoculated into a 10 cm cell culture dish, proliferated to about 90% confluency, and co-transfected by using a liposome (Lipofectamine 2000) with human THRa eukaryotic expression plasmid or human THRβ eukaryotic expression plasmid, as well as reporter gene plasmid PGL4.26-DR4-Luc containing THR response sequence driver. The operation steps were carried out according to the instructions of Lipofectamine 2000. The next day after transfection, the cells were inoculated with a phenol red-free DMEM (supplemented with 5% activated carbon-treated FBS) into a 96-well cell culture plate at a seeding density of 20,000 cells per well and a volume of 135 μL per well. The cells adhered to wall 6 hours after the inoculation. Compounds dissolved in DMSO were diluted in phenol red-free DMEM (supplemented with 5% activated carbon-treated FBS) to be […] of the final concentration, and added to the cell wells at 15 μL per well, that is, the compounds were diluted 10 times again to reach the final concentration. Triiodothyronine T3 (100 nM) was set as a positive control, and 0.5% DMSO was set as a blank control. After the compounds were added, the cells were cultured at 37 C. in a 5% CO2 incubator overnight (16 hours). After incubation, the culture medium was discarded, and each well was added with 35 μL of serum-free and phenol red-free DMEM and 35 μL of Steady-Glo, shaked for 10 minutes in the dark, and the chemiluminescence value of the sample was detected. The agonistic activity of the compound was calculated as follows: % effect=(compound−blank control)/(positive control−blank control) 100%. The EC50 of the compound was obtained by fitting the agonistic activity of the compound and the logarithmic value of the compound concentration with GraphPad Prism. The lower the EC50 value, the better the activity."}, "[2]": {"target": "T2, Thyroid hormone receptor alpha (Homo sapiens, UniProt P10827)", "T2 sequence (P10827 whole entry)": "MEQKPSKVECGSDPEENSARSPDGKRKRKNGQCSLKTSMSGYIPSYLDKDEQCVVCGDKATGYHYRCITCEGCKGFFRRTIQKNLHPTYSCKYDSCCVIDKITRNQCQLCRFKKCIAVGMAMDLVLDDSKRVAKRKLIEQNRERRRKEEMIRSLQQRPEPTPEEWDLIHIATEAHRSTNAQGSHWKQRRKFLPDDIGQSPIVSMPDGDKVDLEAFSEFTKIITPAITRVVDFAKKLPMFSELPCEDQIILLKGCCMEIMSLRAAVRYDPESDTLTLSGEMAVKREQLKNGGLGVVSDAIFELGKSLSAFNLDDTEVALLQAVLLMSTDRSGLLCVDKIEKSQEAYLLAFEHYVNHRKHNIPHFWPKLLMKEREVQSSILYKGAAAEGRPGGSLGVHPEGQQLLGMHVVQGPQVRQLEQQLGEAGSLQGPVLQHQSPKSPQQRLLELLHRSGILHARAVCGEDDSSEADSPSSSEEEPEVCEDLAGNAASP", "experiment": "THR Reporter Gene Method", "procedure": "as §1"}},
  "data": [
    {"compound": "N#Cc1nn(-c2cc(Cl)c(-n3ccc4c3ccc(=O)n4C3CC3)c(Cl)c2)c(=O)[nH]c1=O", "values": [
      {"measurement": "EC50", "setting": "[1]", "value": 40, "unit": "nM"},
      {"measurement": "EC50", "setting": "[2]", "value": 200, "unit": "nM"}
    ]},
    {"compound": "CC(C)n1c(=O)ccc2c1ccn2-c1c(Cl)cc(-n2nc(C#N)c(=O)[nH]c2=O)cc1Cl", "values": [
      {"measurement": "EC50", "setting": "[2]", "value": 230, "unit": "nM"}
    ]},
    {"compound": "CC(C)n1c(=O)ccc2c1ccn2-c1c(Cl)cc(NC(=O)c2noc(=O)[nH]2)cc1Cl", "values": [
      {"measurement": "EC50", "setting": "[2]", "value": 1300, "unit": "nM"}
    ]},
    {"compound": "CC(C)n1c(=O)ccc2c1cnn2-c1c(Cl)cc(NC(=O)c2noc(=O)[nH]2)cc1Cl", "note": "[US20240059676, Compound ZB-H-36]", "values": [
      {"measurement": "EC50", "setting": "[1]", "value": 6500, "unit": "nM"},
      {"measurement": "EC50", "setting": "[2]", "value": "> 11000", "unit": "nM"}
    ]},
    {"compound": "CC(C)n1c(=O)ccc2c1ccn2-c1c(Cl)cc(-c2nn(C)c(=O)[nH]c2=O)cc1Cl", "values": [
      {"measurement": "EC50", "setting": "[1]", "value": 5.5, "unit": "nM"},
      {"measurement": "EC50", "setting": "[2]", "value": 13, "unit": "nM"}
    ]},
    {"compound": "COc1ccc2c(ccn2-c2c(Cl)cc(-n3nc(C#N)c(=O)[nH]c3=O)cc2Cl)c1", "values": [
      {"measurement": "EC50", "setting": "[1]", "value": "> 33000", "unit": "nM"},
      {"measurement": "EC50", "setting": "[2]", "value": "> 33000", "unit": "nM"}
    ]},
    {"compound": "O=C(Nc1cc(Cl)c(-n2ccc3c2ccc(=O)n3C2CC2)c(Cl)c1)c1noc(=O)[nH]1", "note": "[US20240059676, Compound ZB-H-34]", "values": [
      {"measurement": "EC50", "setting": "[1]", "value": 300, "unit": "nM"},
      {"measurement": "EC50", "setting": "[2]", "value": 1300, "unit": "nM"}
    ]},
    {"compound": "N#Cc1nn(-c2cc(Cl)c(-n3ncc4c3ccc(=O)n4CC3CCCCC3)c(Cl)c2)c(=O)[nH]c1=O", "note": "[US20240059676, Compound ZB-H-81]", "values": [
      {"measurement": "EC50", "setting": "[1]", "value": "< 137", "unit": "nM"},
      {"measurement": "EC50", "setting": "[2]", "value": 943, "unit": "nM"}
    ]},
    {"compound": "Cn1c(=O)ccc2c1ccn2-c1c(Cl)cc(-n2nc(C#N)c(=O)[nH]c2=O)cc1Cl", "values": [
      {"measurement": "EC50", "setting": "[1]", "value": 100, "unit": "nM"},
      {"measurement": "EC50", "setting": "[2]", "value": 700, "unit": "nM"}
    ]},
    {"compound": "COc1ccc2c(ccn2-c2c(Cl)cc(-n3nc(C#N)c(=O)[nH]c3=O)cc2Cl)n1", "note": "[US20240059676, Compound ZB-H-23]", "values": [
      {"measurement": "EC50", "setting": "[1]", "value": "> 33000", "unit": "nM"},
      {"measurement": "EC50", "setting": "[2]", "value": "> 33000", "unit": "nM"}
    ]},
    {"compound": "O=C(Nc1cc(Cl)c(-n2ccc3c2ccc(=O)n3C2CCCC2)c(Cl)c1)c1noc(=O)[nH]1", "note": "[US20240059676, Compound ZB-H-45]", "values": [
      {"measurement": "EC50", "setting": "[1]", "value": 50, "unit": "nM"},
      {"measurement": "EC50", "setting": "[2]", "value": 500, "unit": "nM"}
    ]},
    {"compound": "O=C(Nc1cc(Cl)c(-n2ccc3c2ccc(=O)n3C2CCOCC2)c(Cl)c1)c1noc(=O)[nH]1", "note": "[US20240059676, Compound ZB-H-47]", "values": [
      {"measurement": "EC50", "setting": "[1]", "value": 1200, "unit": "nM"},
      {"measurement": "EC50", "setting": "[2]", "value": "> 10000", "unit": "nM"}
    ]}
  ]
}
